Source: patent US10081662B2, “Modified relaxin B chain peptides” (The Florey Institute of Neuroscience and Mental Health, priority 2014, dated 2018)
Peptide text beside a SMILES is read from it.

Experiments:
MMP-2 = MMP-2 expression by gelatin zymography in rat renal myofibroblasts; format: cell-based; conditions: 16.80 nM, gelatin zymography and densitometry
Description: Renal myofibroblast cells natively expressing human RXFP1 were plated out onto 12-well plates with a density of 50 000 cells per well. Cells were treated with 16.8 nM H2-relaxin and 16.80 nM B7-33 C11.23S. Expression of basal MMP-2 levels was monitored with no treatment applied to wells (control). Each treatment was carried out in duplicates (n=5), for each replicate in Dulbecco's modified Eagle's medium (DMEM) containing 10% fetal calf serum, 2.2% HEPES buffer, 1% L-glutamine and 2% penicillin/strepticillin. The cells were incubated over 48 hrs in a humidified chamber with 5% CO2 at 37.8° C. temperature. Following this, media was aspirated off and experiment continued in serum free media (DMEM containing 2.2% HEPES buffer, 1% L-glutamine, 2% penicillin/strepicillin and 2% lactalbumin hydrolysate) for a further 24 hours in a humidified chamber with 5% CO2 at 37.8° C. […]. Media were then collected from various treatments and gel zymography was carried out.
For determination of MMP-2 expression within various treatments, zymographic assays of gelatinases were carried out. […] (0.05M Tris-HCl pH 7.4, 0.01M CaCl2, 5% Triton X-100, 0.02% sodium azide, 1 μM ZnCl2. The gels were then stained with 0.1% Cootnassie blue containing 40% 2-propanol and destained with 7% acetic acid before analysed by ImageJ software.

[1] = test system: mouse model of OVA-induced chronic allergic airway disease; assay: Mouse model of OVA-induced chronic allergic airway disease; format: in vivo; conditions: Balb/c mice
Excerpt: Seven to eight-week old male 129SV mice (which are sensitive to tissue injury and fibrosis) and age-matched female Balb/c mice (which are sensitive to changes in airway hyperresponsiveness) were used for the induction of isoproterenol-induced cardiomyopathy and ovalbumin-induced chronic allergic airways disease, respectively. 16 five week-old male C57BL/6 mice were used in the induction of prostate cancer growth. All animals were obtained from Monash Animal Services (Monash University, Clayton, Victoria, Australia) and housed under standard conditions (maintained on an 12 h light-12 h dark lighting cycle with free access to food and water) in the Department of Pharmacology Animal Room at Monash University.
Twenty-four hours after the last vehicle/drug administration, methacholine-induced airway reactivity was assessed by invasive plethysmography as described before (Locke et al. 2007, Am J Respir Mol Biol 36, 625-632; Royce et al. 2009, Endocrinology 150, 2692-2699). Mice were anaesthetized intraperitoneally with 200 μg/g ketamine and 10 μg/g xylazine. Tracheotomy was performed using an 18-gauge tracheotomy tube and jugular vein cannulated with a 0.61 9 0.28 mm polyethylene tube (Microtube Extrusions, North Rocks, NSW, Australia), Mice were then placed in a plethysmograph chamber (Buxco Research Systems, Wilmington, N.C., USA) where increasing concentrations of acetyl-β-methacholine (from 31.25 μg/kg to 500 μg/kg) were delivered intravenously in five doses. After every dose, airway resistance and compliance were measured (Biosystem XA version 2.7.9; Buxco Electronics Inc, Wilmington, N.C., USA). The change in airway resistance calculated by the maximal resistance after each dose minus baseline resistance (phosphate buffered saline alone) was plotted against each dose of methacholine evaluated.
The mid zone of the male mouse heart and largest lung lobe from female Balb/c mice were fixed in 10% neutral buffered formalin for 24-48 h before being processed and embedded routinely in paraffin wax. Representative sections of tissue, 3-5 um each, were taken and stained with either picrosirius red (Samuel et al. 2011 Lab Invest 91, 675-690) for the detection of interstitial collagen or Masson's trichrome (Royce et al, 2009, Endocrinology 150, 2692-2699) for the detection of subepithelial basement membrane collagen deposition).
Changes in picrosirius-red stained interstitial collagen or epithelial thickness and subepithelial collagen (fibrosis) around the airway lumen from Masson's trichrome-stained sections; which were all captured (at ×20 magnification) using a SPOT digital camera (Q Imaging, Burnaby, BC, Canada) and analysed with Image J 1.3 software (National Institutes of Health, Bethesda, Md.). Four to five fields per mid zone of the heart or 4-5 airways (of 150-350 μm in diameter) per mouse were assessed. Epithelial thickness and subepithelial collagen regions were traced with a digital pen and the thickness of each region calculated by the imaging software. Results were expressed as mean thickness ([…]) of the 4-5 airways sampled.
The apical region of the heart or second largest lung lobe from each mouse was treated as described previously (Samuel C S, et at., 2003, FASEB J 17, 121-123; Royce et at. 2009, Endocrinology 150, 2692-2699) for the determination of hydroxyproline content. Hydroxyproline values were estimated based on a standard curve constructed with serial dilutions of a 0.1 mg/mL stock of trans-4-hydroxyproline-L-proline (Sigma-Aldrich). Hydroxyproline values were then converted to collagen content as detailed previously (Samuel CS, et al. 2004. Endocrinology 145, 4125-4133) and, in turn, divided by the dry weight of each corresponding left ventricular or lung tissue assessed to yield collagen concentration (a measure of fibrosis).
The inventors also tested the fibrosis preventing activity of B7-33 C11.23S in a model of chronic allergic airway disease (AAD). […]

SMILES: CC[C@H](C)[C@H](NC(=O)[C@H](C)NC(=O)[C@@H](NC(=O)[C@H](CCC(N)=O)NC(=O)[C@H](C)NC(=O)[C@H](CCCNC(=N)N)NC(=O)[C@@H](NC(=O)[C@H](CC(C)C)NC(=O)[C@H](CCC(=O)O)NC(=O)[C@H](CCCNC(=N)N)NC(=O)CNC(=O)[C@H](CO)NC(=O)[C@H](CC(C)C)NC(=O)[C@H](CCCCN)NC(=O)[C@@H](NC(=O)[C@@H](N)C(C)C)[C@@H](C)CC)C(C)C)[C@@H](C)CC)C(=O)N[C@@H](CO)C(=O)NCC(=O)N[C@@H](CCSC)C(=O)N[C@@H](CO)C(=O)N[C@H](C(=O)N[C@@H](Cc1c[nH]c2ccccc12)C(=O)N[C@@H](CO)C(=O)N[C@@H](CCCCN)C(=O)N[C@@H](CCCNC(=N)N)C(=O)N[C@@H](CO)C(=O)N[C@@H](CC(C)C)C(N)=O)[C@@H](C)O [B7-33 C11.23S] (H-VIKLSGRELVRAQIAISGMSTWSKRSL-NH2)
- Induction of MMP-2 expression (MMP-2): levels similar to those induced by the native H2 relaxin
- Airway hyper-responsiveness (change in airway resistance to methacholine) ([1]; OVA-induced increase, invasive plethysmography, FIG. 8D): attenuated
- Mean airway epithelial thickness ([1]; compared to OVA treatment, FIG. 8B): significantly reduced
- Total lung collagen content (hydroxyproline analysis) ([1]; relative to OVA treatment, FIG. 8C): normalised
